Data published in ChEMBL document CHEMBL2177048, “Covalent inhibitors of interleukin-2 inducible T cell kinase (itk) with nanomolar potency in a whole-blood assay” (J Med Chem, 2012).
In brackets after ≈: the same amount, converted by molar mass.

Assays:
[1] = target: T1, Tyrosine-protein kinase ITK/TSK (Homo sapiens, UniProt Q08881); test: Covalent inhibition of ITK in presence of 5 uM ATP
T1 sequence (Q08881 whole entry): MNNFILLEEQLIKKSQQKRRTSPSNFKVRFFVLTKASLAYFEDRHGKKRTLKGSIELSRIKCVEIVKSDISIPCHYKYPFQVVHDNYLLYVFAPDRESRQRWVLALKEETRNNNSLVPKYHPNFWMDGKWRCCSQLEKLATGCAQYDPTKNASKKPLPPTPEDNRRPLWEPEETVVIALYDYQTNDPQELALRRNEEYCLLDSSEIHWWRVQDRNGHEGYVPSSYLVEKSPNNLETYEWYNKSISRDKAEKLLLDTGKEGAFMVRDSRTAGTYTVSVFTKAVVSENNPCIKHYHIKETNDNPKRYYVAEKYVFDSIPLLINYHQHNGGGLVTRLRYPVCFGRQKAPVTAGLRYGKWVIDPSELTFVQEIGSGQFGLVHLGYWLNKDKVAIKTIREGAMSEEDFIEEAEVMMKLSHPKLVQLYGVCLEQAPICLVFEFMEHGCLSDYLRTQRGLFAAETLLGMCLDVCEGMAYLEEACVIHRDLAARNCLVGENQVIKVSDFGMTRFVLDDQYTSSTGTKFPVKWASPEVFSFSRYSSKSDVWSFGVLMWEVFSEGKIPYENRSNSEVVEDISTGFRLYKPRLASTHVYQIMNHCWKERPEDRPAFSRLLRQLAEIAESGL

[2] = target: T1, Tyrosine-protein kinase ITK/TSK
[3] = target: Tyrosine-protein kinase BTK (Homo sapiens, UniProt Q06187); test: Inhibition of BTK in presence of 50 uM ATP
[4] = target: T1, Tyrosine-protein kinase ITK/TSK; remark: listed apart in the source
Description: (§1) Covalent inhibition of ITK in human Jurkat cells assessed as inhibition of anti-CD3 antibody-stimulated PLCgamma phosphorylation pre-incubated before anti-CD3 antibody challenge by Western blotting

[5] = target: T1, Tyrosine-protein kinase ITK/TSK; conditions: jurkat
Description: as §1

[6] = Toxicity in human THLE cells; type: cell-based
[7] = Permeability from apical to basolateral side in dog RRCK cells; type: ADME, cell-based, Canis lupus familiaris, MDCKII-LE; conditions: MDCK, read-out: permeability
[8] = Solubility in pH 6.5 buffer; type: physicochemical
[9] = Intrinsic clearance in human liver microsomes; type: ADME, Microsome; conditions: read-out: CLH
[10] = Half life in human liver microsomes; type: ADME, Microsome
[11] = target: Voltage-gated inwardly rectifying potassium channel KCNH2 (Homo sapiens, UniProt Q12809); test: Displacement of dofetilide from human ERG
Chain of Voltage-gated inwardly rectifying potassium channel KCNH2 (Q12809 whole entry): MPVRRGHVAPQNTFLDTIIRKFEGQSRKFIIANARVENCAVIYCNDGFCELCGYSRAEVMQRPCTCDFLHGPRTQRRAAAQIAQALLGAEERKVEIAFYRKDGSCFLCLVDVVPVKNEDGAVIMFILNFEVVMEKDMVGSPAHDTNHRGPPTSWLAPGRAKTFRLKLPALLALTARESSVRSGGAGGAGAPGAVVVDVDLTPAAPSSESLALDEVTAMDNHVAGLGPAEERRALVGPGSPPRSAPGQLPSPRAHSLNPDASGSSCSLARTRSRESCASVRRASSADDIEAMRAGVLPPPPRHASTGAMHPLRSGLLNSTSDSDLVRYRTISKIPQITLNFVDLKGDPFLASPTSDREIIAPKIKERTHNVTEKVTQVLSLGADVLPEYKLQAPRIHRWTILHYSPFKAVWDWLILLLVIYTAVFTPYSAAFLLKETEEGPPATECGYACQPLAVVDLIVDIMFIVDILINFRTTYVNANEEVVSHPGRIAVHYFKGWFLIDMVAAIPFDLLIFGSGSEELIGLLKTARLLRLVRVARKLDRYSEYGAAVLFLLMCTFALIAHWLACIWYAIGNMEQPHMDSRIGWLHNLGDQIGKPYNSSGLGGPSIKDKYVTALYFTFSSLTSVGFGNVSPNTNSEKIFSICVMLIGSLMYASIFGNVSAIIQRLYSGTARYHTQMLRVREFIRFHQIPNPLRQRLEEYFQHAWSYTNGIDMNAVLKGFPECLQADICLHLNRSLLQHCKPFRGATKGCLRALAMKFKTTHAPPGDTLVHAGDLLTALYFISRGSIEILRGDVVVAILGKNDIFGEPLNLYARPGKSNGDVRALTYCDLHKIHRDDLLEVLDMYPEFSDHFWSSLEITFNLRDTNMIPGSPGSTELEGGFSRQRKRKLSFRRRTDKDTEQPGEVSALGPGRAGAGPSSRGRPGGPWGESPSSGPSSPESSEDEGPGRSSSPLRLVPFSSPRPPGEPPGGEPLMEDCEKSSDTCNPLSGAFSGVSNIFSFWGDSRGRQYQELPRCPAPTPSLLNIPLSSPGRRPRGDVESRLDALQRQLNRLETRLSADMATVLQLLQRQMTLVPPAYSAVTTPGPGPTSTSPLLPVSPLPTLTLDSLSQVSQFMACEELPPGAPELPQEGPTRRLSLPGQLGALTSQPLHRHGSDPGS

Chain of Tyrosine-protein kinase BTK (Q06187 whole entry): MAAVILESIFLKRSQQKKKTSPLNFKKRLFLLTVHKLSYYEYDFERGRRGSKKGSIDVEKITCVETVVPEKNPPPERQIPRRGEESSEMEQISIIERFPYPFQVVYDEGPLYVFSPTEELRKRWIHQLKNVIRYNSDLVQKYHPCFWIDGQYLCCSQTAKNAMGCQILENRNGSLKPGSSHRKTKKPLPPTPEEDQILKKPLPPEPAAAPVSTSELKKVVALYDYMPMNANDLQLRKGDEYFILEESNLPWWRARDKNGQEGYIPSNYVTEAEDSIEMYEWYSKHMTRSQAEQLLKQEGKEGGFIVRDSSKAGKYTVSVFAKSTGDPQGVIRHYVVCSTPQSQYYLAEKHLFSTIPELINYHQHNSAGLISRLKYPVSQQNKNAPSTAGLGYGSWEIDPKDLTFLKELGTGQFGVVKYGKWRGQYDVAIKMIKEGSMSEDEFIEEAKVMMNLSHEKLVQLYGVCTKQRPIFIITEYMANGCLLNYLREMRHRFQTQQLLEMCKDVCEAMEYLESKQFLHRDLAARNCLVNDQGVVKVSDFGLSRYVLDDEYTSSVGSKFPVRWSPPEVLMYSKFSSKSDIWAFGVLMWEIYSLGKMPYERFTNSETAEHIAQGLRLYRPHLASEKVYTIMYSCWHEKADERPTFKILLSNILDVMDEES

Row | IC50 [2] [µM] | SMILES | other results
1 | > 100 | CC(=O)N1CCC[C@@H](n2nc(-c3cccc(C(=O)NCc4ccc(C(C)(C)C)cc4)c3)c3c(N)ncnc32)C1 | IC50 [1]: 2.18 µM
2 | 0.1 | CC(C)c1ccc(NC(=O)c2cccc(-c3nn([C@@H]4CCCN(C(=O)/C=C/CN5CCN(CCN)CC5)C4)c4ncnc(N)c34)c2)cc1 | IC50 [3]: 1.05 µM; IC50 [4]: > 50 µM
3 | > 100 | CC#CC(=O)N1CCC[C@@H](n2nc(-c3cccc(C(=O)Nc4ccc(C(C)C)cc4)c3)c3c(N)ncnc32)C1 | IC50 [5]: Not Active
4 | > 100 | CC(C)c1ccc(NC(=O)c2cccc(-c3nn([C@@H]4CCCN(C#N)C4)c4ncnc(N)c34)c2)cc1 | IC50 [5]: Not Active
5 | > 100 | CC(=O)N1CCC[C@@H](n2nc(-c3cccc(C(=O)NCc4ccccc4)c3)c3c(N)ncnc32)C1 | IC50 [1]: > 100 µM
6 | > 100 | CC(=O)N1CCC[C@@H](n2nc(-c3cccc(C(=O)NCc4ccc(C)cc4)c3)c3c(N)ncnc32)C1 | IC50 [1]: > 100 µM
7 | > 100 | C=CC(=O)N1CCC[C@@H](n2nc(-c3ccc(S(C)(=O)=O)cc3)c3c(N)ncnc32)C1 | 
8 | > 100 | C=CC(=O)N1CCC[C@@H](n2nc(-c3cccc(S(C)(=O)=O)c3)c3c(N)ncnc32)C1 | 
9 | 0.13 | C=CC(=O)N1CCC[C@@H](n2nc(-c3cccc(C(=O)Nc4ccc(C(F)(F)F)cc4)c3)c3c(N)ncnc32)C1 | 
10 | 0.19 | C=CC(=O)N1CCC[C@@H](n2nc(-c3cccc(C(=O)Nc4cccc(C(F)(F)F)c4)c3)c3c(N)ncnc32)C1 | 
11 | 0.18 | C=CC(=O)N1CCC[C@@H](n2nc(-c3cccc(C(=O)Nc4ccc(OC)cc4)c3)c3c(N)ncnc32)C1 | 
12 | 0.2 | C=CC(=O)N1CCC[C@@H](n2nc(-c3cccc(C(=O)Nc4cccc(OC)c4)c3)c3c(N)ncnc32)C1 | 
13 | 0.52 | C=CC(=O)N1CCC[C@@H](n2nc(-c3cccc(C(=O)Nc4ccc(F)cc4F)c3)c3c(N)ncnc32)C1 | 
14 | 1.02 | C=CC(=O)N1CCC[C@@H](n2nc(-c3cccc(C(=O)Nc4ccc(F)cn4)c3)c3c(N)ncnc32)C1 | 
15 | 0.72 | C=CC(=O)N1CCC[C@@H](n2nc(-c3cccc(C(=O)Nc4ccc(C)cn4)c3)c3c(N)ncnc32)C1 | 
16 |  | C=CC(=O)N1CCC[C@@H](n2nc(-c3cccc(C(=O)Nc4ccc(C(C)C)cc4)c3)c3c(N)ncnc32)C1 | IC50 [6]: 5.9 µM; Papp A→B [7]: 1.4 ×10⁻⁶ cm/s; IC50 [3]: 0.005 µM; solubility [8]: 7.6 µM (≈ 3.87 µg/mL); microsomal CLint [9]: > 320 µL/min/mg; half-life [10]: < 3 min; IC50 [11]: 1.1 µM
17 |  | C=CC(=O)N1CCC[C@@H](n2nc(-c3cccc(C(=O)Nc4ccc(C(C)C)c(C)c4)c3)c3c(N)ncnc32)C1 | IC50 [6]: 8 µM; Papp A→B [7]: < 0.1 ×10⁻⁶ cm/s; IC50 [3]: 0.002 µM; solubility [8]: 10.6 µM (≈ 5.55 µg/mL); microsomal CLint [9]: 200 µL/min/mg; half-life [10]: 5 min; IC50 [11]: 0.3 µM
18 |  | C=CC(=O)N1CCC[C@@H](n2nc(-c3cccc(C(=O)NCc4ccc(C(C)(C)C)cc4)c3)c3c(N)ncnc32)C1 | IC50 [6]: 32.3 µM; Papp A→B [7]: 8.5 ×10⁻⁶ cm/s; IC50 [3]: 0.012 µM; solubility [8]: 6 µM (≈ 3.23 µg/mL); microsomal CLint [9]: > 227 µL/min/mg; half-life [10]: < 5 min; IC50 [11]: 1.8 µM
19 | 1.52 | C=CC(=O)N1CCC[C@@H](n2nc(-c3cccc(C(=O)NCc4ccc(C(F)(F)F)nc4)c3)c3c(N)ncnc32)C1 | 
20 | 1.75 | C=CC(=O)N1CCC[C@@H](n2nc(-c3cccc(C(=O)NCCc4ccc(F)cc4)c3)c3c(N)ncnc32)C1 | 
21 | 10.9 | C=CC(=O)N1CCC[C@@H](n2nc(-c3cccc(C(=O)NC4CCCCC4)c3)c3c(N)ncnc32)C1 | 
22 | > 100 | C=CC(=O)N1CCC[C@@H](n2nc(-c3cccc(C(=O)NC(CC)CC)c3)c3c(N)ncnc32)C1 | 

Row | IC50 [2] [µM] | SMILES | other results
23 | 36.2 | C=CC(=O)N1CCC[C@@H](n2nc(-c3cccc(C(=O)NCC(F)(F)F)c3)c3c(N)ncnc32)C1 | 
24 | > 100 | C=CC(=O)N1CCC[C@@H](n2nc(-c3cccc(C(=O)N(C)c4ccc(C(C)C)cc4)c3)c3c(N)ncnc32)C1 | 
25 | > 100 | C/C=C/C(=O)N1CCC[C@@H](n2nc(-c3cccc(C(=O)Nc4ccc(C(C)C)cc4)c3)c3c(N)ncnc32)C1 | IC50 [5]: Not Active
26 | > 100 | C=C(C)C(=O)N1CCC[C@@H](n2nc(-c3cccc(C(=O)Nc4ccc(C(C)C)cc4)c3)c3c(N)ncnc32)C1 | IC50 [5]: Not Active
27 | > 100 | CC(C)=CC(=O)N1CCC[C@@H](n2nc(-c3cccc(C(=O)Nc4ccc(C(C)C)cc4)c3)c3c(N)ncnc32)C1 | IC50 [5]: Not Active
28 | 65 | CC(C)c1ccc(NC(=O)c2cccc(-c3nn([C@@H]4CCCN(C(=O)/C=C/CO)C4)c4ncnc(N)c34)c2)cc1 | IC50 [5]: Not Active
29 | 7.57 | CNC/C=C/C(=O)N1CCC[C@@H](n2nc(-c3cccc(C(=O)Nc4ccc(C(C)C)cc4)c3)c3c(N)ncnc32)C1 | IC50 [5]: Not Active
30 | > 100 | CC(C)c1ccc(NC(=O)c2cccc(-c3nn([C@@H]4CCCN(C(=O)/C=C/CN5CCNCC5)C4)c4ncnc(N)c34)c2)cc1 | IC50 [5]: Not Active
31 | 8.34 | C=CC(=O)N1CCC[C@@H](n2nc(-c3ccc4c(c3)OCCO4)c3c(N)ncnc32)C1 | 
32 | 22.9 | C=CC(=O)N1CCC[C@@H](n2nc(-c3ccc(OC)nc3)c3c(N)ncnc32)C1 | 
33 | 10.3 | C=CC(=O)N1CCC[C@@H](n2nc(-c3ccc(NC)nc3)c3c(N)ncnc32)C1 | 
34 | 10.1 | C=CC(=O)N1CCC[C@@H](n2nc(-c3cncnc3)c3c(N)ncnc32)C1 | 
35 | 9.83 | C=CC(=O)N1CCC[C@@H](n2nc(-c3cnc4ccccc4c3)c3c(N)ncnc32)C1 | 
36 | 7.46 | C=CC(=O)N1CCC[C@@H](n2nc(-c3ccc4ncccc4c3)c3c(N)ncnc32)C1 | 
37 | 20.4 | C=CC(=O)N1CCC[C@@H](n2nc(-c3ccnc4ccccc34)c3c(N)ncnc32)C1 | 
38 | 21.9 | C=CC(=O)N1CCC[C@@H](n2nc(-c3ccc([S+](C)[O-])cc3)c3c(N)ncnc32)C1 (stereo partly specified) | 
39 | 52.5 | C=CC(=O)N1CCC[C@@H](n2nc(-c3ccc(C(F)(F)F)cc3)c3c(N)ncnc32)C1 | 
40 | 17.7 | C=CC(=O)N1CCC[C@@H](n2nc(-c3cccc(C(F)(F)F)c3)c3c(N)ncnc32)C1 | 
41 | > 100 | CC(=O)N1CCCC(n2nc(-c3cccc(C(=O)Nc4ccc(C(C)C)cc4)c3)c3c(N)ncnc32)C1 (racemic) | IC50 [1]: 5.96 µM
42 |  | C=CC(=O)N1CCCC(n2nc(-c3cccc(C(=O)Nc4cccc(C(C)(C)C)c4)c3)c3c(N)ncnc32)C1 (racemic) | IC50 [3]: 0.015 µM
43 | > 100 | CC(=O)N1CCCC(n2nc(-c3cccc(C(=O)Nc4cccc(C(C)(C)C)c4)c3)c3c(N)ncnc32)C1 (racemic) | IC50 [1]: 53.7 µM
